Test results published in patent publication US11744873B2, “Compositions and methods for the treatment of metabolic and liver disorders” (Viking Therapeutics, Inc., priority 2021, dated 2023).

Experiments:
[1] = system: mice fed Gubra amylin NASH (GAN) diet; test: Biological effects in GAN diet NASH mice; assay type: in vivo; settings: after two weeks, 10 mg/kg group; for Gal-3 Total: liver Galectin-3, histological quantitative assessment; for TG Total: liver triglycerides, GAN diet NASH mice; for α-SMA Total: liver α-smooth muscle actin, histological quantitative assessment
Method: NASH was induced in mice by feeding mice a Gubra amylin NASH (GAN) diet as described in Boland et al. World J Gastroenterol. 2019, 25(33): 4904-4920. One week prior to administration of a first dose of compounds, the mice were weighed and randomized, and their food intake was measured. Mice were randomly assigned to dosing groups, with twelve mice per group. […] Compound dose titration (nmol/kg): 0.6 (day 0), 1.2 (day 1), 2.4 (day 2), 4.8 (day 3), 4.8 (day 4), 12 (day 5), 30.0 (from day 6).
After two weeks, animals were sacrificed. Plasma enzymes (P-ALT (alanine aminotransferase) and P-AST (aspartate aminotransferase)), total plasma triglycerides, and total plasma cholesterol were measured, and terminal necropsy of each liver was carried out, determining relative liver weight as a percentage of body weight, assaying total liver biochemistry including total liver triglycerides, plasma insulin and total liver cholesterol, as well as histological evaluation of Galectin-3, and alpha-smooth muscle actin.

[2] = Pharmacokinetics studies of formulations, SC dosing; assay type: in vivo, cynomolgus monkeys; settings: for half-life: cynomolgus monkey, in vivo, SC 0.2 mg/kg, mean
Method: (§1) Subcutaneous (SC) dosing of the compounds in a vehicle of 0.1% bovine serum albumin in phosphate buffered saline solution was performed with male cynomolgus monkeys. […] Samples were obtained at 1, 4, 8, 12, 24, 48, 72, 96, 120, 168, 192, 240 and 336 hours after the single dose was administered.
Formulation 1 included the compound in a vehicle of 0.1% bovine serum albumin in phosphate buffered saline solution.

[3] = Pharmacokinetics in monkeys, SC dosing; assay type: in vivo, cynomolgus monkeys; settings: for half-life: cynomolgus monkey, in vivo, male cynomolgus monkeys, SC single dose 0.2 mg/kg, 0.1% bovine serum albumin in phosphate buffered saline, mean; for persistence in the blood stream as compared to tirzepatide: cynomolgus monkeys, SC 0.2 mg/kg
Method: as §1

[4] = target: T1, GIP receptor (Homo sapiens, UniProt P48546); test: HSA modulated binding assay, GIP receptor; settings: for % Binding avg at CMax: GIP receptor; for IC50: IC 50, GIP receptor
T1 sequence (P48546 22-466): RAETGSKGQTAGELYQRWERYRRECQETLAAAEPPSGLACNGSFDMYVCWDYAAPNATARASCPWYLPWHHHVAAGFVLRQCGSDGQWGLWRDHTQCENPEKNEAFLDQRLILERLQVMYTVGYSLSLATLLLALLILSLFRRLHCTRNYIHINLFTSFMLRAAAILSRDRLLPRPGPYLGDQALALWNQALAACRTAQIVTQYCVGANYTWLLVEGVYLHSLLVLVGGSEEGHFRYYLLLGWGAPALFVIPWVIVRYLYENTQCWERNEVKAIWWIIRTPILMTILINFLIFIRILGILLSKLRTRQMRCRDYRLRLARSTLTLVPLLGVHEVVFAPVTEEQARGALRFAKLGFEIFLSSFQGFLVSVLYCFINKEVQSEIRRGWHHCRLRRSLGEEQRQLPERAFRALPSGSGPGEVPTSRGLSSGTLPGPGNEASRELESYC

[5] = target: T2, GLP-1 receptor (Homo sapiens, UniProt P43220); test: HSA modulated binding assay, GLP-1 receptor; settings: for IC50: IC 50, GLP-1 receptor
[6] = target: T1, GIP receptor; test: TagLite binding assay, GIP receptor; settings: for % Binding avg at CMax: GIP receptor
[7] = target: T2, GLP-1 receptor; test: TagLite binding assay, GLP-1 receptor; settings: for % Binding avg at CMax: GLP-1 receptor

T2 sequence (P43220 24-463): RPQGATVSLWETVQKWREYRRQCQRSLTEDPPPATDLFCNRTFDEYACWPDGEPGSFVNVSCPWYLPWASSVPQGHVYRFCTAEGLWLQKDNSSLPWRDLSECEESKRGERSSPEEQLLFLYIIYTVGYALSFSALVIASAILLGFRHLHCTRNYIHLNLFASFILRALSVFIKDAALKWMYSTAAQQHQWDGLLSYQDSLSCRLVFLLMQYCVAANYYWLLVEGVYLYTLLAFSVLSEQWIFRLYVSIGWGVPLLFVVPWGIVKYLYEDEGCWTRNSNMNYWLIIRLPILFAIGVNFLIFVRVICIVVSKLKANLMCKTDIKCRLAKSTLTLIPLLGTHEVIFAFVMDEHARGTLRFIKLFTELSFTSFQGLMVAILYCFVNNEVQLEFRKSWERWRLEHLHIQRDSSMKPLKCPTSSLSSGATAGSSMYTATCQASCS

Compound	Gal-3 Total [1] [mg]	TG Total [1] [mg per/ liver]	α-SMA Total [1] [mg]	half-life [3] [days]	persistence in the blood stream as compared to tirzepatide [3]	% Binding avg at CMax ([4]; 0% HSA) [%]	% Binding avg at CMax ([4]; 2% HSA) [%]	% Binding avg at CMax ([5]; GLP-1 receptor, 0% HSA) [%]	% Binding avg at CMax ([5]; GLP-1 receptor, 2% HSA) [%]	% Binding avg at CMax [6] [%]	% Binding avg at CMax [7] [%]	also measured
CC[C@H](C)[C@H](NC(=O)[C@H](CC(C)C)NC(=O)[C@H](Cc1c[nH]c2ccccc12)NC(=O)[C@H](CCC(N)=O)NC(=O)[C@@H](NC(=O)[C@H](Cc1ccccc1)NC(=O)[C@H](C)NC(=O)[C@H](CCCCNC(=O)COCCOCCNC(=O)COCCOCCNC(=O)CC[C@H](NC(=O)CCCCCCCCCCCCCCCCCCC(=O)O)P(=O)(O)O)NC(=O)[C@H](CCC(N)=O)NC(=O)[C@H](C)NC(=O)[C@@H](NC(=O)[C@H](CCCCN)NC(=O)[C@H](CC(=O)O)NC(=O)[C@H](CC(C)C)NC(=O)C(C)(C)NC(=O)[C@@H](NC(=O)[C@H](CO)NC(=O)[C@H](Cc1ccc(O)cc1)NC(=O)[C@H](CC(=O)O)NC(=O)[C@H](CO)NC(=O)[C@@H](NC(=O)[C@H](Cc1ccccc1)NC(=O)[C@@H](NC(=O)CNC(=O)[C@H](CCC(=O)O)NC(=O)C(C)(C)NC(=O)[C@@H](N)Cc1ccc(O)cc1)[C@@H](C)O)[C@@H](C)O)[C@@H](C)CC)[C@@H](C)CC)C(C)C)C(=O)N[C@@H](C)C(=O)NCC(=O)NCC(=O)N1CCC[C@H]1C(=O)N[C@@H](CO)C(=O)N[C@@H](CO)C(=O)NCC(=O)N[C@@H](C)C(=O)N1CCC[C@H]1C(=O)N1CCC[C@H]1C(=O)N1CCC[C@H]1C(=O)N[C@@H](CO)C(N)=O [Compound 8]	117 ± 12	75 ± 7	83 ± 8	–	–	–	–	–	–	–	–	–
CC[C@H](C)[C@H](NC(=O)[C@H](CC(C)C)NC(=O)[C@H](Cc1c[nH]c2ccccc12)NC(=O)[C@H](CCC(N)=O)NC(=O)[C@@H](NC(=O)[C@H](Cc1ccccc1)NC(=O)[C@H](C)NC(=O)[C@H](CCCCNC(=O)COCCOCCNC(=O)COCCOCCNC(=O)CC[C@H](NC(=O)CCCCCCCCCCCCCCCCCCP(=O)(O)O)C(=O)O)NC(=O)[C@H](CCC(N)=O)NC(=O)[C@H](C)NC(=O)[C@@H](NC(=O)[C@H](CCCCN)NC(=O)[C@H](CC(=O)O)NC(=O)[C@H](CC(C)C)NC(=O)C(C)(C)NC(=O)[C@@H](NC(=O)[C@H](CO)NC(=O)[C@H](Cc1ccc(O)cc1)NC(=O)[C@H](CC(=O)O)NC(=O)[C@H](CO)NC(=O)[C@@H](NC(=O)[C@H](Cc1ccccc1)NC(=O)[C@@H](NC(=O)CNC(=O)[C@H](CCC(=O)O)NC(=O)C(C)(C)NC(=O)[C@@H](N)Cc1ccc(O)cc1)[C@@H](C)O)[C@@H](C)O)[C@@H](C)CC)[C@@H](C)CC)C(C)C)C(=O)N[C@@H](C)C(=O)NCC(=O)NCC(=O)N1CCC[C@H]1C(=O)N[C@@H](CO)C(=O)N[C@@H](CO)C(=O)NCC(=O)N[C@@H](C)C(=O)N1CCC[C@H]1C(=O)N1CCC[C@H]1C(=O)N1CCC[C@H]1C(=O)N[C@@H](CO)C(N)=O [Compound 4]	137 ± 15	70 ± 5	102 ± 10	4.92	significantly greater persistence	–	–	–	–	–	–	persistence in the blood stream as compared to tirzepatide in the identical formulation ([2]; Formulation 1 and Formulation 2): significantly greater persistence; half-life ([2]; Formulation 1 (0.1% bovine serum albumin in phosphate buffered saline)): 4.42 days; half-life ([2]; Formulation 2 (40% propylene glycol and 60% 10 mM pH 6 citrate buffer)): 5 days
tirzepatide [reference compound]	138 ± 17	80 ± 11	108 ± 22	–	–	−3.05	10.07	−0.14	33.01	−1.21	0.20	Ratio of HSA/No HSA ([5]; GLP-1 receptor, binding with 2% HSA to binding with 0% HSA): 12.8
CC[C@H](C)[C@H](NC(=O)[C@H](CC(C)C)NC(=O)[C@H](Cc1c[nH]c2ccccc12)NC(=O)[C@H](CCC(N)=O)NC(=O)[C@@H](NC(=O)[C@H](Cc1ccccc1)NC(=O)[C@H](C)NC(=O)[C@H](CCCCNC(=O)COCCOCCNC(=O)COCCOCCNC(=O)CC[C@H](NC(=O)CCCCCCCCCCCCCCCCCCP(=O)(O)O)P(=O)(O)O)NC(=O)[C@H](CCC(N)=O)NC(=O)[C@H](C)NC(=O)[C@@H](NC(=O)[C@H](CCCCN)NC(=O)[C@H](CC(=O)O)NC(=O)[C@H](CC(C)C)NC(=O)C(C)(C)NC(=O)[C@@H](NC(=O)[C@H](CO)NC(=O)[C@H](Cc1ccc(O)cc1)NC(=O)[C@H](CC(=O)O)NC(=O)[C@H](CO)NC(=O)[C@@H](NC(=O)[C@H](Cc1ccccc1)NC(=O)[C@@H](NC(=O)CNC(=O)[C@H](CCC(=O)O)NC(=O)C(C)(C)NC(=O)[C@@H](N)Cc1ccc(O)cc1)[C@@H](C)O)[C@@H](C)O)[C@@H](C)CC)[C@@H](C)CC)C(C)C)C(=O)N[C@@H](C)C(=O)NCC(=O)NCC(=O)N1CCC[C@H]1C(=O)N[C@@H](CO)C(=O)N[C@@H](CO)C(=O)NCC(=O)N[C@@H](C)C(=O)N1CCC[C@H]1C(=O)N1CCC[C@H]1C(=O)N1CCC[C@H]1C(=O)N[C@@H](CO)C(N)=O [Compound 12]	–	–	–	4.33	significantly greater persistence	−3.33	5.52	0.22	12.04	−1.47	0.09	IC50 ([4]; 0% HSA): 256 nM; IC50 ([4]; 2% HSA): 436 nM; IC50 ([5]; 0% HSA): 145 nM; IC50 ([5]; 2% HSA): 763 nM; IC50 [6]: 137 nM; IC50 [7]: 129 nM
